From patent US20240197890A1, “FLAVONE DERIVATIVES AND USES IN TARGETING CK2-MEDIATED DISEASES AND CONDITIONS” (Salk Institute for Biological Studies, priority 2020, published 2024)

What was measured:
[1] = system: AKT pS129; test: AKT pS129 levels in IL1β-stimulated primary astrocytes; assay type: cell-based; conditions: IL1-β for 5 h
Source text: AKT pS129 is a known direct CK2 substrate.

[2] = system: NF-κB pS529; test: Immunofluorescence of NF-κB and NF-κB pS529 in activated astrocytes; assay type: cell-based, human; conditions: after 1 h
Protocol: Immunotluorescence. […] After treatment, cells were fixed with 4% paraformaldehyde solution for 20 min at room temperature and washed 3× with DPBS for 10 min each. The cells were permeabilized using 5% horse serum and 10% Triton X in DPBS for 15 min at room temperature and blocked with 5% horse serum in PBS for 30 min at room temperature. Cells were incubated with primary antibodies in blocking buffer either overnight at 4° C. or for 2 hours at room temperature. After incubation, cells were washed 3× with PBS, blocked using 5% horse serum in PBS for 30 min at room temperature, and incubated with Cy3 red-labeled or AF488 green-labeled secondary antibodies diluted in blocking buffer for 1 hour at room temperature. The cells were washed once with PBS for 10 min, then counter-stained with DAPI. The cells were washed 3× with PBS and mounted with glass coverslips and Immu-Mount solution. Images were obtained with the Zeiss fluorescent microscope. The following primary antibodies were used: rabbit anti-NF-κB (1:400; CST), mouse anti-phospho NF-κB S529 (20 ug/ml; Thermo Fisher), rabbit anti-CK2A1 (1:500; Bethyl), mouse anti-IKb alpha (1:400; CST), mouse anti-phospho IKb alpha (1:50; Santa Cruz), rabbit anti-phospho CK2A1 (1:25; Thermo Fisher), rabbit anti-phospho Cdc37 (1:50; Novus), mouse anti-phospho NF-κB S529 (1:25; R&D), rabbit anti-Cdc37 (1:100; CST), mouse anti-SQSTM1 (1:50; Santa Cruz), anti rabbit-phospho NF-κB S536 (1:1600; CST), anti rabbit-Akt (pan) (1:400; CST), anti mouse-phospho Akt S473 (1:500; Sigma).
To investigate the potential effects of CK2 activity on NF-κB, NF-κB and NF-κB pS529 were measured by immunofluorescence in activated astrocytes. […] At this timepoint, NF-κB pS529 levels were similar across all treatments, possibly as a result of slower turnover by pNF-κB species.

[3] = system: iGluta neurons co-cultured with BD or CT astrocytes; test: Neuronal activity of iGluta neurons co-cultured with pretreated astrocytes; assay type: cell-based, human; conditions: BD astrocytes pretreated 5 h with IL1β and 20 μM compound, compared to vehicle
Source text: Activity of CT astrocytes is also renormalized (C+vs. D+).

COc1cc(-c2cc(=O)c3c(O)cc(O)cc3o2)ccc1O [CHR, chrysoeriol]
AKT pS129 levels [1]: reduced | IL1-β-induced increase of NF-κB nuclear intensity [2]: blocked | neuronal activity (mean firing rate) [3]: increased
